Where “and” joins values, the source holds several entries; their conditions need not be identical. Identical values can stand only once.
Assays:
[1] = In vitro metal competition study; type: physicochemical; conditions: for % Intact of 89Zr-complexes: PBS pH 7.4, 37 C
How it was run: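 Each 89Zr-labeled complex (0.1 mM stock) in PBS, pH 7.4, was mixed with 1 mM solutions of Fe(III), Co(II), Zn(II), Cu(II), Mg(II), Ga(III) or Gd(III) salts. Mixtures were incubated at 37 °C for 7 days. 89Zr release was tracked by radio-TLC at 2 h, 1 d, 4 d and 7 d, in triplicate.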

[2] = In vitro EDTA challenge study; type: physicochemical
How it was run: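 Each 89Zr-labeled complex incubated at 37 °C for up to 7 days with EDTA (10, 50 or 100 mM; pH 5 or 7) at 1:100, 1:500 and 1:1000 ligand/EDTA ratios, n=4. Intact fraction sampled from 30 min to 7 d by radio-TLC (0.1 M EDTA pH 5 mobile phase) and gamma counting.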

Biodistribution studies = type: in vivo, female NIH Swiss mice
How it was run: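 Female NIH Swiss mice (6-8 wk, n=6) received 89Zr-labeled complex, 0.55 MBq (15 μCi)/mouse i.v. via tail vein; organs excised at 2, 4, 24, 48, 72 h, weighed and gamma-counted. %ID/g and %ID/organ derived against a weighed, counted standard; mean±SD, two-tailed unpaired t test.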

[3] = In vitro serum stability (radio-ITLC); type: in vitro ADME; conditions: 37 C, after 7 days
How it was run: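 89Zr-labeled complexes (70 μCi, 2.59 MBq) incubated in human serum at 37 °C for 7 days (n=4). Analyzed daily by radio-ITLC on ITLC-SA strips with 0.1 M EDTA (pH 5) mobile phase and gamma counting; SEC in PBS after 7 days.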

[4] = mice, intravenous, 72 h post-injection

For `O=C1CN2CCN3CCN4CCN(CC2)CC(=O)[O][89Zr]([O]1)([O]C(=O)C3)[O]C(=O)C4` [89Zr-DOTA], the “% Intact of 89Zr-complexes” value ([1]; Co2+, 2 h) was 100%, the “% Intact of 89Zr-complexes” value ([1]; Co2+, 1 d) was 100% and the “% Intact of 89Zr-complexes” value ([1]; Co2+, 4 d) was 100%. The “% Intact of 89Zr-complexes” value ([1]; Co2+, 7 d) was 100%, the “% Intact of 89Zr-complexes” value ([1]; Cu2+, 2 h) was 100% and the “% Intact of 89Zr-complexes” value ([1]; Cu2+, 1 d) was 100%. The “% Intact of 89Zr-complexes” value ([1]; Cu2+, 4 d) was 100%, the “% Intact of 89Zr-complexes” value ([1]; Cu2+, 7 d) was 100% and the “% Intact of 89Zr-complexes” value ([1]; Fe3+, 2 h) was 100%. The “% Intact of 89Zr-complexes” value ([1]; Fe3+, 1 d) was 100%, the “% Intact of 89Zr-complexes” value ([1]; Fe3+, 4 d) was 100% and the “% Intact of 89Zr-complexes” value ([1]; Fe3+, 7 d) was 100%. For the same compound, the “% Intact of 89Zr-complexes” value ([1]; Ga3+, 2 h) was 100%, the “% Intact of 89Zr-complexes” value ([1]; Ga3+, 1 d) was 100% and the “% Intact of 89Zr-complexes” value ([1]; Ga3+, 4 d) was 100%. For the same compound, the “% Intact of 89Zr-complexes” value ([1]; Ga3+, 7 d) was 100%, the “% Intact of 89Zr-complexes” value ([1]; Gd3+, 2 h) was 100% and the “% Intact of 89Zr-complexes” value ([1]; Gd3+, 1 d) was 100%. The “% Intact of 89Zr-complexes” value ([1]; Gd3+, 4 d) was 100%, the “% Intact of 89Zr-complexes” value ([1]; Gd3+, 7 d) was 100% and the “% Intact of 89Zr-complexes” value ([1]; Mg2+, 2 h) was 100%. For the same compound, the “% Intact of 89Zr-complexes” value ([1]; Mg2+, 1 d) was 100%, the “% Intact of 89Zr-complexes” value ([1]; Mg2+, 4 d) was 100% and the “% Intact of 89Zr-complexes” value ([1]; Mg2+, 7 d) was 100%. The “% Intact of 89Zr-complexes” value ([1]; Zn2+, 2 h) was 100%, the “% Intact of 89Zr-complexes” value ([1]; Zn2+, 1 d) was 100% and the “% Intact of 89Zr-complexes” value ([1]; Zn2+, 4 d) was 100%. The “% Intact of 89Zr-complexes” value ([1]; Zn2+, 7 d) was 100%, the “Demetallation in metal competition” value ([1]; excess metal salts in aqueous buffer, over the 7 day experiment) was “no demetallation” and the “Transchelation in EDTA challenge” value ([2]; 100-, 500-, and 1000-fold excess of EDTA at pH 5 or pH 7 over 7 days) was “did not undergo transchelation”. For the same compound, the “% Intact of 89Zr-complexes” value ([2]; EDTA 100-fold, pH 5.0, 37 C, 1 h) was 100%, the “% Intact of 89Zr-complexes” value ([2]; EDTA 100-fold, pH 5.0, 37 C, 1 d) was 100% and the “% Intact of 89Zr-complexes” value ([2]; EDTA 100-fold, pH 5.0, 37 C, 3 d) was 100%. For the same compound, the “% Intact of 89Zr-complexes” value ([2]; EDTA 100-fold, pH 5.0, 37 C, 5 d) was 100%, the “% Intact of 89Zr-complexes” value ([2]; EDTA 100-fold, pH 5.0, 37 C, 7 d) was 100% and the “% Intact of 89Zr-complexes” value ([2]; EDTA 100-fold, pH 7.0, 37 C, 1 h) was 100%. The “% Intact of 89Zr-complexes” value ([2]; EDTA 100-fold, pH 7.0, 37 C, 1 d) was 100%, the “% Intact of 89Zr-complexes” value ([2]; EDTA 100-fold, pH 7.0, 37 C, 3 d) was 100% and the “% Intact of 89Zr-complexes” value ([2]; EDTA 100-fold, pH 7.0, 37 C, 5 d) was 100%. For the same compound, the “% Intact of 89Zr-complexes” value ([2]; EDTA 100-fold, pH 7.0, 37 C, 7 d) was 100%, the “% Intact of 89Zr-complexes” value ([2]; EDTA 500-fold, pH 5.0, 37 C, 1 h) was 100% and the “% Intact of 89Zr-complexes” value ([2]; EDTA 500-fold, pH 5.0, 37 C, 1 d) was 100%. The “% Intact of 89Zr-complexes” value ([2]; EDTA 500-fold, pH 5.0, 37 C, 3 d) was 100%, the “% Intact of 89Zr-complexes” value ([2]; EDTA 500-fold, pH 5.0, 37 C, 5 d) was 100% and the “% Intact of 89Zr-complexes” value ([2]; EDTA 500-fold, pH 5.0, 37 C, 7 d) was 100%. The “% Intact of 89Zr-complexes” value ([2]; EDTA 500-fold, pH 7.0, 37 C, 1 h) was 100%, the “% Intact of 89Zr-complexes” value ([2]; EDTA 500-fold, pH 7.0, 37 C, 1 d) was 100% and the “% Intact of 89Zr-complexes” value ([2]; EDTA 500-fold, pH 7.0, 37 C, 3 d) was 100%. For the same compound, the “% Intact of 89Zr-complexes” value ([2]; EDTA 500-fold, pH 7.0, 37 C, 5 d) was 100%, the “% Intact of 89Zr-complexes” value ([2]; EDTA 500-fold, pH 7.0, 37 C, 7 d) was 100% and the “% Intact of 89Zr-complexes” value ([2]; EDTA 1000-fold, pH 5.0, 37 C, 1 h) was 100%. For the same compound, the “% Intact of 89Zr-complexes” value ([2]; EDTA 1000-fold, pH 5.0, 37 C, 1 d) was 100%, the “% Intact of 89Zr-complexes” value ([2]; EDTA 1000-fold, pH 5.0, 37 C, 3 d) was 100% and the “% Intact of 89Zr-complexes” value ([2]; EDTA 1000-fold, pH 5.0, 37 C, 5 d) was 100%. The “% Intact of 89Zr-complexes” value ([2]; EDTA 1000-fold, pH 5.0, 37 C, 7 d) was 100%, the “% Intact of 89Zr-complexes” value ([2]; EDTA 1000-fold, pH 7.0, 37 C, 1 h) was 100% and the “% Intact of 89Zr-complexes” value ([2]; EDTA 1000-fold, pH 7.0, 37 C, 1 d) was 100%. The “% Intact of 89Zr-complexes” value ([2]; EDTA 1000-fold, pH 7.0, 37 C, 3 d) was 100%, the “% Intact of 89Zr-complexes” value ([2]; EDTA 1000-fold, pH 7.0, 37 C, 5 d) was 100% and the “% Intact of 89Zr-complexes” value ([2]; EDTA 1000-fold, pH 7.0, 37 C, 7 d) was 100%. For the same compound, the Blood (Biodistribution studies; 24 h, current study) was 0.001±0.000 % ID/g, the Bone (Biodistribution studies; 24 h, current study) was 0.036±0.008 % ID/g and the Heart (Biodistribution studies; 24 h, current study) was 0.016±0.004 % ID/g. For the same compound, the Kidney (Biodistribution studies; 24 h, current study) was 0.317±0.054 % ID/g, the Liver (Biodistribution studies; 24 h, current study) was 0.068±0.004 % ID/g and the Muscle (Biodistribution studies; 24 h, current study) was 0.004±0.001 % ID/g. For the same compound, the Radioactivity in blood (Biodistribution studies; [4]) was 0.0003 ± 0.001 % ID per g and 0.0003 ± 0.0008 % ID per g, the Radioactivity in bone (Biodistribution studies; [4]) was 0.025 ± 0.009 % ID per g and the Radioactivity in kidney (Biodistribution studies; [4]) was 0.078 ± 0.009 % ID per g. The Radioactivity in liver (Biodistribution studies; [4]) was 0.021 ± 0.002 % ID per g, the “Radioactivity retention in bone tissue over time” value (Biodistribution studies; mice, time points up to 72 h) was “remained low” and the “Radio-ITLC peak of complex in human serum” value [3] was 100%.

From publication PMC5363373, “Zirconium tetraazamacrocycle complexes display extraordinary stability and provide a new strategy for zirconium-89-based radiopharmaceutical development” (Chemical Science, 2016)
